We go through 10 molecules from patent US11208387B2, “Macrocyclic broad spectrum antibiotics” (Genentech, Inc., priority 2019, dated 2021).

Holding throughout (test): Serum MIC, broth micro-dilution
Holding throughout (type): cell-based

Assay [1] concerns Escherichia coli strain ATCC 25922. The following applies: Escherichia coli. As to the method: (§1) In vitro antimicrobial activity of each compound was determined by measuring minimal inhibitor concentrations (MICs) using the broth micro-dilution technique as approved by the Clinical and Laboratory Standards Institute (CLSI) (Methods for Dilution Antimicrobial Susceptibility Tests for Bacteria that Grow Aerobically; Approved Standard—Eighth Edition. CLSI document M07-A8. Wayne, Pa.: Clinical and Laboratory Standards; 2009). Antibacterial activity was measure against Escherichia coli strain ATCC 25922 (E. coli), Klebsiella pneumoniae ATCC 700603 (K. pneumoniae), Acinetobacter baumannii ATCC 17978 (A. baumannii), and Pseudomonas aeruginosa PA01 (P. aeruginosa), each of which is representative of a clinically relevant Gram-negative species. Cells were inoculated onto plates of Mueller Hinton Agar and grown at 37° C. for 16-18 hours. Inocula suspensions were prepared by scraping cells into 1 mL of testing media (Mueller Hinton II cation adjusted Broth) and diluting to a final OD 600 nm of 0.01.
(§2) Test compounds were prepared in DMSO at a concentration of […]. The compounds were tested under several different dilution formats. In protocol 1, the compound stocks were diluted into testing media at a concentration of 64 μg/ml and serial 2-fold dilutions were made in the same media, in 96-well U bottom microtiter dishes, for a total of 10 compound concentrations. In protocol 2, the compound stocks were diluted into testing media at a concentration of 4 μg/mL and serial 2-fold dilutions were made in the same media, in 96-well U bottom microtiter dishes, for a total of 10 compound concentrations. In protocol 3, compound stocks were diluted into testing media at a concentration of 0.5 μg/mL, with serial 2-fold dilutions conducted as described above. In protocol 4, compound stocks were diluted into testing media at a concentration of 0.13 μg/mL, with serial 2-fold dilutions conducted as described above. Inocula suspensions were added to the 2-fold serial dilutions of test compounds to a final density of OD 600 nm of 0.0005 and incubated at 35° C. for 22 hours. […] To assess antimicrobial activity in the presence of plasma proteins, MICs were also determined in growth media supplemented with 50% serum. Bacterial inocula and test compound dilution plates were prepared using the same protocol as described above for the standard MICs assay, with the exception that a mixture of 50% v/v Mueller Hinton II cation adjusted Broth and 50% v/v mouse sterile filtered serum (Equitech-Bio) was used in place of 100% Mueller Hinton II cation adjusted Broth. The results are listed in Table 3 (MIC, IC50 values micromolar).

Assay [2] relates to Pseudomonas aeruginosa PA01. The following applies: Pseudomonas aeruginosa. Here is the method: as §1, §2
For assay [3], the system named is Klebsiella pneumoniae ATCC 700603. The following applies: Klebsiella pneumoniae. As to the method:
as §1, §2

Assay [4] deals with Acinetobacter baumannii ATCC 17978. The note with it: Acinetobacter baumannii. Here is the method:
as §1, §2

The mark [5] stands for this setting: ATCC25922, 50% v/v mouse serum, compounds of Table 1, Table 7, read-out: E. coli 25922 Serum MIC.
Where [6] appears, read: PA01, 50% v/v mouse serum, compounds of Table 1, Table 7, read-out: P. aeruginosa 01 Serum MIC.
The mark [7] stands for this setting: ATCC700603, 50% v/v mouse serum, compounds of Table 1, Table 7, read-out: K. pneumoniae 700603 Serum MIC.
The mark [8] stands for this setting: ATCC17978, 50% v/v mouse serum, compounds of Table 1, Table 7, read-out: A. baumanii 17978 Serum MIC.

≈ marks a conversion by molar mass, not a printed value. Read-outs that look alike come from different tables or passages of the source.

For `Cc1nc(-c2ccc(C(C)(C)C)cc2)nc(C)c1C(=O)N[C@@H](CCN)C(=O)N(C)[C@@H]1C(=O)N[C@@H](C)C(=O)N[C@H](C(=O)O)Cc2cc(OCCN)c(O)c(c2)-c2cc1ccc2O` (racemic) [Example 561-15], the MIC in assay [1] (setting [5]) was determined as 2 µM (≈ 1.68 µg/mL); in assay [2] (setting [6]) it was 64 µM (≈ 53.7 µg/mL); in assay [3] (setting [7]), 4 µM (≈ 3.36 µg/mL); in assay [4] (setting [8]), 64 µM (≈ 53.7 µg/mL).
With `Cc1nc(-c2ccc(C(C)(C)C)cc2)nc(C)c1C(=O)N[C@@H](CCN)C(=O)N(C)[C@@H]1C(=O)N[C@@H](C)C(=O)N[C@H](C(=O)O)Cc2cc(OCCN)c(O)c(c2)-c2cc1ccc2OCCN` (racemic) [Example 563], the MIC in assay [1] (ATCC25922, read-out: E. coli 25922 Serum MIC) amounted to 0.75 µM (≈ 0.662 µg/mL); in assay [2] (PA01, read-out: P. aeruginosa 01 Serum MIC), 64 µM (≈ 56.5 µg/mL); in assay [3] (ATCC700603, read-out: K. pneumoniae 700603 Serum MIC), 0.75 µM (≈ 0.662 µg/mL); in assay [4] (ATCC17978, read-out: A. baumanii 17978 Serum MIC), 64 µM (≈ 56.5 µg/mL).
Take `COc1c(OC[C@H](O)CN)cc2cc1-c1cc(ccc1OC[C@H](O)CN)C[C@@H](C(=O)NCC#N)NC(=O)[C@H](C)NC(=O)[C@H]2N(C)C(=O)[C@H](CCN)NC(=O)c1c(C)nc(-c2ccc(C(C)(C)C)cc2)nc1C` (racemic) [Example 586]: the MIC in assay [1] (setting [5]) worked out at 0.094 µM (≈ 0.0935 µg/mL); in assay [2] (setting [6]), 2 µM (≈ 1.99 µg/mL); in assay [3] (setting [7]), 0.094 µM (≈ 0.0935 µg/mL); in assay [4] (setting [8]), 2 µM (≈ 1.99 µg/mL).
In the case of `CCCCCOc1ccc(-c2nc(C)c(C(=O)N[C@@H](CCN)C(=O)N(C)[C@@H]3C(=O)N[C@@H](C)C(=O)N[C@H](C(=O)O)Cc4ccc(OCCN)c(c4)-c4cc3ccc4OCCN)c(C)n2)cc1` (racemic) [Example 638], the minimum inhibitory concentration (MIC) was found to be 0.75 µM (≈ 0.672 µg/mL) in assay [1] (setting [5]), 64 µM (≈ 57.3 µg/mL) in assay [2] (setting [6]), 1 µM (≈ 0.896 µg/mL) in assay [3] (setting [7]) and 64 µM (≈ 57.3 µg/mL) in assay [4] (setting [8]).
In the case of `CCC1(Oc2ccc(-c3nc(C)c(C(=O)N[C@@H](CCN)C(=O)N(C)[C@@H]4C(=O)N[C@@H](C)C(=O)N[C@H](C(=O)O)Cc5ccc(OCCN)c(c5)-c5cc4ccc5OCCN)c(C)n3)cc2)CC1` (racemic) [Example 639], the MIC in assay [1] (setting [5]) was 0.5 µM (≈ 0.447 µg/mL); in assay [2] (setting [6]), 64 µM (≈ 57.2 µg/mL); in assay [3] (setting [7]) it was 1 µM (≈ 0.894 µg/mL); in assay [4] (setting [8]), 64 µM (≈ 57.2 µg/mL).
`Cc1nc(-c2ccc(C(C)(C)C)cc2)ncc1C(=O)N[C@@H](CCN)C(=O)N(C)[C@@H]1C(=O)N[C@@H](C)C(=O)N[C@H](C(=O)O)Cc2ccc(OCCN)c(c2)-c2cc1ccc2OCCN` (racemic) [Example 640]: the MIC in assay [1] (setting [5]) was 0.5 µM (≈ 0.426 µg/mL); in assay [2] (setting [6]) it was 64 µM (≈ 54.5 µg/mL); in assay [3] (setting [7]) it was 0.75 µM (≈ 0.639 µg/mL); in assay [4] (setting [8]), 64 µM (≈ 54.5 µg/mL).
As to `CCCCCCOc1ccc(-c2nc(C)c(C(=O)N[C@@H](CCN)C(=O)N(C)[C@@H]3C(=O)N[C@@H](C)C(=O)N[C@H](C(=O)O)Cc4ccc(OCCN)c(c4)-c4cc3ccc4OCCN)c(C)n2)cc1` (racemic) [Example 641], the MIC was 0.75 µM (≈ 0.683 µg/mL) in assay [1] (setting [5]), 64 µM (≈ 58.2 µg/mL) in assay [2] (setting [6]), 1 µM (≈ 0.91 µg/mL) in assay [3] (setting [7]) and 64 µM (≈ 58.2 µg/mL) in assay [4] (setting [8]).
As for `CCCCCOc1ccc(-c2nc(C)c(C(=O)N[C@@H](CCN)C(=O)N(C)[C@@H]3C(=O)N[C@@H](C)C(=O)N[C@H](C(=O)O)Cc4ccc(OCCN)c(c4)-c4cc3ccc4O)c(C)n2)cc1` (racemic) [Example 642], the MIC in assay [1] (setting [5]) was found to be 25 µM (≈ 21.3 µg/mL); in assay [2] (setting [6]), 53 µM (≈ 45.2 µg/mL); in assay [3] (setting [7]) it was 1.1 µM (≈ 0.938 µg/mL); in assay [4] (setting [8]) it was 71 µM (≈ 60.6 µg/mL).
For `Cc1nc(-c2ccc(OC(C)C)cc2)nc(C)c1C(=O)N[C@@H](CCN)C(=O)N(C)[C@@H]1C(=O)N[C@@H](C)C(=O)N[C@H](C(=O)O)Cc2ccc(O)c(c2)-c2cc1ccc2OCCN` (racemic) [Example 643], in that order: 2.3 µM (≈ 1.9 µg/mL), 73 µM (≈ 60.2 µg/mL), 4.6 µM (≈ 3.79 µg/mL) and 73 µM (≈ 60.2 µg/mL).
Taken in the same sequence, the figures for `Cc1cc(-c2ccc(C(C)(C)C)cc2)nc(C)c1C(=O)N[C@@H](CCN)C(=O)N(C)[C@@H]1C(=O)N[C@@H](C)C(=O)N[C@H](C(=O)O)Cc2ccc(O)c(c2)-c2cc1ccc2OCCN` (racemic) [Example 644] were 1.2 µM (≈ 0.986 µg/mL), 74 µM (≈ 60.8 µg/mL), 4.6 µM (≈ 3.78 µg/mL) and 74 µM (≈ 60.8 µg/mL).
